Series [1] deals with normal human peripheral blood leucocytes. The note with it: 0.5 ug/mL to 10 ug/mL; cited from earlier work.
Series [2] concerns human leukemia Jurkat cells. Conditions: cited from earlier work.
Series [3] deals with MCF-7 (breast cancer). Briefly: Solid tumor cell growth inhibition, MTT, 72 h. In kind it is cell-based, human. From the text: (§1) Human solid tumor cell lines: HepG2 (human hepatocellular carcinoma, HCC), A549 (human lung cancer), MCF-7 (breast cancer), PANC-1 (pancreatic, cancer), PC-3 (prostate cancer). MG63 (osteosarcomas). AGS (gastric cancer), Huh7 (human hepatoma cell), Becap37 (human breast cancer cell), Hela (human cervical cancer cell), RKO (human colon adenocarcinoma cell), SW620 (human colon adenocarcinoma cell), SW480 (human colon cancer cell), MGC 803 (human gastric cancer cell). Obtaining 4000 well-growing human solid tumor cells and inoculating them into wells of a 96-well cell culture plate. The culture medium is DMEM High Glucose cell culture medium containing 10% fetal bovine serum. Alter adding the berbamine derivatives of different concentration and mixing uniformly, the plate is placed in a carbon dioxide cell incubator (5% CO2) at 37° C. and incubated for 72 hours. Then the viable cell concentration is determined by the MTT method, and the cell viability (%) alter drug treatment is calculated. In this experiment, the cell viability of control group (not treated with any compound) is set as 100%.

In series [4] the test system is MG63 (osteosarcomas). Briefly: Solid tumor cell growth inhibition, MTT, 72 h. In kind it is cell-based, human.
Text: as §1

Series [5] deals with Huh7 (human hepatoma cell). Briefly: Solid tumor cell growth inhibition, MTT, 72 h. Conditions: Huh-7, read-out: half inhibiting concentration (IC50 value) Huh7. In kind it is cell-based.
Text: as §1

The test system of series [6] is HepG2 (human hepatocellular carcinoma, HCC). Briefly: Solid tumor cell growth inhibition, MTT, 72 h. Format: cell-based.
Text: as §1

The test system of series [7] is AGS (gastric cancer). Nature of the series: Solid tumor cell growth inhibition, MTT, 72 h. In kind it is cell-based. Conditions: Homo sapiens, read-out: half inhibiting concentration (IC50 value) AGS.
Text: as §1

Series [8] relates to SW480 (human colon cancer cell). Briefly: Solid tumor cell growth inhibition, MTT, 72 h. In kind it is cell-based.
Text: as §1

Series [9] concerns PANC-1 (pancreatic cancer). Briefly: Solid tumor cell growth inhibition, MTT, 72 h. In kind it is cell-based. Conditions: Homo sapiens, read-out: half inhibiting concentration (IC50 value) PANC-1.
Text: as §1

Series [10] has as its system RKO (human colon adenocarcinoma cell). Briefly: Solid tumor cell growth inhibition, MTT, 72 h. Format: cell-based. The note with it: read-out: half inhibiting concentration (IC50 value) RKO.
Text: as §1

Series [11] concerns A549 (human lung cancer). Briefly: Solid tumor cell growth inhibition, MTT, 72 h. Format: cell-based.
Text: as §1

For series [12], the system named is Hela (human cervical cancer cell). Briefly: Solid tumor cell growth inhibition, MTT, 72 h. In kind it is cell-based. Conditions: read-out: half inhibiting concentration (IC50 value) Hela.
Text: as §1

In series [13] the test system is Becap37 (human breast cancer cell). Nature of the series: Solid tumor cell growth inhibition, MTT, 72 h. In kind it is cell-based. The note with it: read-out: half inhibiting concentration (IC50 value) Becap37.
Text: as §1

For series [14], the system named is PC-3 (prostate cancer). Nature of the series: Solid tumor cell growth inhibition, MTT, 72 h. In kind it is cell-based. The note with it: Homo sapiens, read-out: half inhibiting concentration (IC50 value) PC-3.
Text: as §1

For series [15], the system named is SW620 (human colon adenocarcinoma cell). Briefly: Solid tumor cell growth inhibition, MTT, 72 h. In kind it is cell-based. Conditions: SW-620, read-out: half inhibiting concentration (IC50 value) SW620.
Text: as §1

Series [16] relates to MGC 803 (human gastric cancer cell). Briefly: Solid tumor cell growth inhibition, MTT, 72 h. In kind it is cell-based.
Text: as §1

In series [17] the test system is NB4 (acute promyelocytic leukemia, AML). Briefly: Leukemia cell growth inhibition, MTT, 72 h. Format: cell-based. The note with it: Homo sapiens, read-out: half inhibiting concentration (IC50 value) NB4. From the text:
(§2) Leukemia cell lines; human K562 leukemia cell line (chronic myeloid leukemia, CML), K562/adr (drug-resistant chronic myeloid leukemia (CML), NB4 (acute promyelocytic leukemia, AML), Kasumi-1 (acute myeloid leukemia M2 type, AML-M2), Jurkat (acute lymphoblastic leukemia, ALL), H9 (acute lymphoblastic leukemia, ALL). Obtaining 6000 well-growing leukemia cells and inoculating them into wells of a 96-well cell culture plate. The culture medium is the 1640 cell culture medium containing 10% fetal bovine serum. After adding of the berbamine derivatives of different concentrations and mixing uniformly, the plate is placed in a carbon dioxide cell incubator (5% CO2) at 37° C. and incubated for 72 hours. Then the viable cell concentration is determined by the MTT method.

Series [18] relates to Kasumi-1 (acute myeloid leukemia M2 type). Briefly: Leukemia cell growth inhibition, MTT, 72 h. Format: cell-based. The note with it: Homo sapiens, read-out: half inhibiting concentration (IC50 value) Kasumi-1.
Text: as §2

Series [19] deals with H9 (acute lymphoblastic leukemia, ALL). Nature of the series: Leukemia cell growth inhibition, MTT, 72 h. Conditions: Homo sapiens, read-out: half inhibiting concentration (IC50 value) H9. Format: cell-based.
Text: as §2

For series [20], the system named is Jurkat (acute lymphoblastic leukemia, ALL). Nature of the series: Leukemia cell growth inhibition, MTT, 72 h. In kind it is cell-based, human.
Text: as §2

The test system of series [21] is K562/adr (drug-resistant chronic myeloid leukemia). Briefly: Leukemia cell growth inhibition, MTT, 72 h. Format: cell-based, human.
Text: as §2

Series [22] concerns K562 leukemia cell line (chronic myeloid leukemia, CML). Nature of the series: Leukemia cell growth inhibition, MTT, 72 h. Format: cell-based, human.
Text: as §2

In series [23] the test system is RPMI 8226 (multiple myeloma). Briefly: Multiple myeloma cell growth inhibition, MTT, 72 h. Format: cell-based, human. Here is the method:
Multiple myeloma and lymphoma cell lines: RPM18226 (multiple myeloma). Obtaining 6000 well-growing abovesaid tumor cells and inoculating them into wells of a 96-well cell culture plate. The culture medium is the 1640 cell culture medium containing 10% fetal bovine serum. After adding the berbamine derivatives of different concentrations and mixing uniformly, the plate is placed in a carbon dioxide cell incubator (5% CO2) at 37° C. and incubated for 72 hours. Then the viable cell concentration is determined by the MTT method.

Series [24] concerns the target CaM (Homo sapiens, UniProt P0DP23). Conditions: higher than that of berbamine; cited from earlier work.
The test system of series [25] is red cell membrane CaM-independent Ca2++Mg2+ ATPase. Conditions: stronger than that of berbamine; cited from earlier work.

Converted amounts (≈) assume the structure as drawn. Read-outs that look alike come from different tables or passages of the source.

Regarding `COc1cc2c3cc1Oc1c(OC)c(OC)cc4c1[C@@H](Cc1ccc(O)c(c1)Oc1ccc(cc1)C[C@@H]3N(C)CC2)N(C)CC4` [BBM, 6,6′,7-trimethoxy-2,2′-dimethylberbaman-12-ol], the “cytotoxicity on normal human peripheral blood leucocytes” value in [1] is “no obvious cytotoxicity”. The cell viability rate in series [2] (drug concentration 0.5 ug/mL) is recorded as 93.69%; in series [2] (drug concentration 10 ug/mL) it was 14.85%. Also, the IC50 is 20.6 µg/mL (≈ 33.8 µM) in series [3] (Homo sapiens, MCF7, 72 hours, MTT, read-out: half inhibiting concentration (IC50 value) MCF-7); 9.18 µg/mL (≈ 15.1 µM) in series [4] (Homo sapiens, MG-63, 72 hours, MTT, read-out: half inhibiting concentration (IC50 value) MG63); 7.63 µg/mL (≈ 12.5 µM) in [5]; 6.67 µg/mL (≈ 11 µM) in series [6] (Homo sapiens, HepG2, 72 hours, MTT, read-out: half inhibiting concentration (IC50 value) Hepg2); 5.84 µg/mL (≈ 9.59 µM) in series [7]; 5.74 µg/mL (≈ 9.43 µM) in series [8] (Homo sapiens, SW480, 72 hours, MTT, read-out: half inhibiting concentration (IC50 value) SW480). For the same compound, the IC50 in series [9] stood at 12.7 µg/mL (≈ 20.9 µM); in series [10] it was 2.34 µg/mL (≈ 3.84 µM); in [11] (Homo sapiens, A549, 72 hours, MTT, read-out: half inhibiting concentration (IC50 value) A549), 5.38 µg/mL (≈ 8.84 µM); in series [12], 5.04 µg/mL (≈ 8.28 µM); in [13], 7.31 µg/mL (≈ 12 µM); in [14] it was 3.7 µg/mL (≈ 6.08 µM). For the same compound, the IC50 in [15] is 1.1 µg/mL (≈ 1.81 µM); in series [16] (Homo sapiens, MGC-803, 72 hours, MTT, read-out: half inhibiting concentration (IC50 value) MGC803) it was 4.96 µg/mL (≈ 8.15 µM); in series [17], 3 µg/mL (≈ 4.93 µM); in [18], 1.3 µg/mL (≈ 2.14 µM); in series [19] it was 5.04 µg/mL (≈ 8.28 µM); in series [20] (Homo sapiens, Jurkat, 72 hours, MTT, read-out: half inhibiting concentration (IC50 value) Jurkat), 1.9 µg/mL (≈ 3.12 µM). Further, the IC50 in series [21] (Homo sapiens, K562/Adr, 72 hours, MTT, read-out: half inhibiting concentration (IC50 value) K562adr) came to 3.53 µg/mL (≈ 5.8 µM); in series [22] (Homo sapiens, K562, 72 hours, MTT, read-out: half inhibiting concentration (IC50 value) K562) it was 3 µg/mL (≈ 4.93 µM); in series [23] (Homo sapiens, RPMI-8226, 72 hours, MTT, read-out: half inhibiting concentration (IC50 value) RPMI 8226), 1.17 µg/mL (≈ 1.92 µM).
Regarding `COc1cc2c3cc1Oc1c(OC)c(OC)cc4c1C(Cc1ccc(OCCCNc5ncc(C(=O)Nc6c(C)cccc6Cl)s5)c(c1)Oc1ccc(cc1)CC3N(C)CC2)N(C)CC4` (stereo not drawn) [Compound (2), 12-O-(3-(5-(2-chloro-6-methyl-phenyl-carbamoyl)-thiazol-2-amino)-propyl)-berbamine], the “improvement of anti-MG63 (osteosarcoma) cell activity compared with berbamine” value in [4] (vs berbamine) is given as “more than 12 fold”.
In the case of `COc1cccc(NC(=O)c2sc(NCCCOc3ccc4cc3Oc3ccc(cc3)CC3c5cc(c(OC)cc5CCN3C)Oc3c(OC)c(OC)cc5c3C(C4)N(C)CC5)nc2C)c1` (stereo not drawn) [Compound (3), 12-O-(3-(5-(3-methoxy-phenyl-carbamoyl)-4-methyl-thiazol-2-amino)-propyl)-Berbamine], the “improvement of anti-K562 activity compared with berbamine (second mention, K562/adr meant)” value in series [21] (vs berbamine) came to 8 fold. In addition, the “improvement of anti-K562 activity compared with berbamine” value in [22] (vs berbamine) was determined as 8 fold.
In the case of `COc1cccc(NC(=O)c2cnc(NCCCOc3ccc4cc3Oc3ccc(cc3)CC3c5cc(c(OC)cc5CCN3C)Oc3c(OC)c(OC)cc5c3C(C4)N(C)CC5)cn2)c1` (stereo not drawn) [Compound (4), 12-O-(3-(5-(3-methoxy-phenyl-carbamoyl)-pyrazin-2-amino)-propyl)-berbamine], in [3] (vs berbamine), the “improvement of anti-MCP-7 (breast cancer) cell activity compared with berbamine” value was “more than 26 fold”. Moreover, the “improvement of anti-HepG2 cell activity compared with berbamine” value in series [6] (vs berbamine) is listed as “about 9 fold”. Moreover, the “improvement of anti-SW480 cell activity compared with berbamine” value in series [8] (vs berbamine) is reported as “more than 6 fold”. Besides, the “improvement of anti-MGC 803 cell activity compared with berbamine” value in series [16] (vs berbamine) is “more than 8 fold”. For the same compound, in series [20] (vs berbamine), the “improvement of anti-Jurkat acute lymphoblastic leukemia activity compared with berbamine” value is on record as “more than 13 fold”. Moreover, the “improvement of anti-RPMI8226 (multiple myeloma) cell line activity compared with berbamine” value in series [23] (vs berbamine) is “more than 117 fold”.
Take `COc1cccc(NC(=O)c2ccc(NCCCOc3ccc4cc3Oc3ccc(cc3)CC3c5cc(c(OC)cc5CCN3C)Oc3c(OC)c(OC)cc5c3C(C4)N(C)CC5)nc2)c1` (stereo not drawn) [Compound (6), 12-O-(3-(5-(3-methoxy-phenyl-carbamoyl)-pyridin-2-amino)-propyl)-berbamine]: the “improvement of anti-A549 (human lung cancer) cell activity compared with berbamine” value in series [11] (vs berbamine) is listed as “more than 14 fold”.
Regarding `CCOCCCCOc1ccc2cc1Oc1ccc(cc1)C[C@H]1c3cc(c(OC)cc3CCN1C)Oc1c(OC)c(OC)cc3c1[C@@H](C2)N(C)CC3` [EBB, [O-(4-ethoxy)-butyl]-berbamine], the “specific coefficient as CaM antagonist relative to berbamine” value in series [24] is 6.5 times.
On to O-Dansyl berbamine [DB], for which the “inhibitory activity on red cell membrane CaM-independent Ca2++Mg2+ ATPase relative to berbamine” value in [25] is given as 25 times.
